The test system of the test is L1210 leukemia ip in BDF1 mice, survival T/C. Description: NCI In Vivo Anticancer Drug Screen. Data for tumor model L1210 Leukemia (intraperitoneal) in B6D2F1 (BDF1) mice. The note with it: endpoint: mean survival time, higher = longer survival. The method, boiled down:
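Mice bearing the transplanted tumor received compound or vehicle. Survival of the treated group was divided by that of the vehicle-treated control group to give the ratio.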

The mark [1] stands for this setting: dose: 100.0 mg/kg/injection, schedule: Q01DX009 (ip), vehicle: saline with Tween-80.
Where [2] appears, read: dose: 200.0 mg/kg/injection, schedule: Q01DX009 (ip), vehicle: saline with Tween-80.
Setting [3] is: dose: 400.0 mg/kg/injection, schedule: Q01DX009 (ip), vehicle: saline with Tween-80.
[4] abbreviates: dose: 100.0 mg/kg/injection, schedule: Q04DX003 (ip), vehicle: saline.
Where [5] appears, read: dose: 200.0 mg/kg/injection, schedule: Q04DX003 (ip), vehicle: saline.
Where [6] appears, read: dose: 400.0 mg/kg/injection, schedule: Q04DX003 (ip), vehicle: saline.
[7] abbreviates: dose: 100.0 mg/kg/injection, schedule: Q01DX009 (ip), vehicle: Klucel (hydroxypropylcellulose) (HPC).
The mark [8] stands for this setting: dose: 200.0 mg/kg/injection, schedule: Q01DX009 (ip), vehicle: Klucel (hydroxypropylcellulose) (HPC).

Where “and” joins values, the source holds several entries; their conditions need not be identical. Equal values may be shown once. Inconclusive results and toxic doses are left out.

As for `CNS(=O)(=O)c1ccc(NC(=O)C(Cl)Cl)cc1`, the T/C (dose: 100.0 mg/kg/injection, schedule: Q01DX001 (ip), vehicle: other) was 101 % of control; the T/C under setting [1] is 95 % of control; the T/C (dose: 200.0 mg/kg/injection, schedule: Q01DX001 (ip), vehicle: other) is 103 % of control; the T/C under setting [2] is 106 % of control; the T/C (dose: 400.0 mg/kg/injection, schedule: Q01DX001 (ip), vehicle: other) is 101 % of control; the T/C under setting [3] was 102 % of control.

As to `CCOC(=O)CCN1CC(C)OC(C)C1` (configuration not stated), the T/C was 97 % of control (dose: 100.0 mg/kg/injection, schedule: Q01DX009 (ip), vehicle: saline); 93 % of control under setting [4]; 97 % of control (dose: 200.0 mg/kg/injection, schedule: Q01DX009 (ip), vehicle: saline); 102 % of control under setting [5]; 103 % of control (dose: 400.0 mg/kg/injection, schedule: Q01DX009 (ip), vehicle: saline); 111 % of control under setting [6].

For `COc1ccc(C(=Cc2ccccc2Br)c2ccc(OC)cc2)cc1`, the T/C under setting [1] is 102 % of control; the T/C (dose: 100.0 mg/kg/injection, schedule: Q04DX003 (ip), vehicle: saline with Tween-80) was 106 % of control; the T/C under setting [2] is 98 % of control; the T/C (dose: 200.0 mg/kg/injection, schedule: Q04DX003 (ip), vehicle: saline with Tween-80) was 98 % of control; the T/C under setting [3] was 93 % of control; the T/C (dose: 400.0 mg/kg/injection, schedule: Q04DX003 (ip), vehicle: saline with Tween-80) was 92 % of control.

Consider `CCOC(=O)CCCN1CCC=C(C#N)C1`, for which the T/C was 102 % of control (dose: 75.0 mg/kg/injection, schedule: Q01DX001 (ip), vehicle: saline) and 107 % of control (dose: 300.0 mg/kg/injection, schedule: Q01DX001 (ip), vehicle: saline).

Take `N#CCCCCSC12CC3CC(CC(C3)C1)C2`: the T/C is, setting by setting: (dose: 100.0 mg/kg/injection, schedule: Q04DX002 (ip), vehicle: Klucel (hydroxypropylcellulose) (HPC)) 115 % of control; (dose: 200.0 mg/kg/injection, schedule: Q04DX002 (ip), vehicle: Klucel (hydroxypropylcellulose) (HPC)) 108 % of control; (dose: 400.0 mg/kg/injection, schedule: Q04DX002 (ip), vehicle: Klucel (hydroxypropylcellulose) (HPC)) 89 % of control.

`CN(C)c1ccc(-c2nc3nc[nH]c(=O)c3[nH]2)cc1`: the T/C by setting is: (dose: 5.0 mg/kg/injection, schedule: Q01DX001 (ip), vehicle: saline) 100 % of control; (dose: 10.0 mg/kg/injection, schedule: Q01DX001 (ip), vehicle: saline) 96 % of control; (dose: 20.0 mg/kg/injection, schedule: Q01DX001 (ip), vehicle: saline) 96 % of control; (dose: 40.0 mg/kg/injection, schedule: Q01DX001 (ip), vehicle: saline) 96 % of control; (dose: 80.0 mg/kg/injection, schedule: Q01DX001 (ip), vehicle: saline) 96 % of control.

Regarding `Cc1cc[n+]2cc3ccc4ccccc4c3c(C)c2c1`, the T/C was 102 % of control (dose: 2.0 mg/kg/injection, schedule: Q01DX015 (ip), vehicle: saline); 106 % of control (dose: 3.12 mg/kg/injection, schedule: Q01DX009 (ip), vehicle: acetone); 95 % of control (dose: 4.0 mg/kg/injection, schedule: Q01DX015 (ip), vehicle: saline); 101 % of control (dose: 6.25 mg/kg/injection, schedule: Q01DX009 (ip), vehicle: acetone); 101 % of control (dose: 8.0 mg/kg/injection, schedule: Q01DX015 (ip), vehicle: saline); 106 % of control (dose: 12.5 mg/kg/injection, schedule: Q04DX003 (ip), vehicle: acetone). Further, the T/C (dose: 16.0 mg/kg/injection, schedule: Q01DX015 (ip), vehicle: saline) is 118 % of control.

As to `N#CC(Nc1ccccc1)c1ccccc1` (configuration not stated), the T/C runs as follows: under setting [7], 91 % of control; (dose: 100.0 mg/kg/injection, schedule: Q04DX003 (ip), vehicle: Klucel (hydroxypropylcellulose) (HPC)) 97 % of control; under setting [8], 96 % of control; (dose: 200.0 mg/kg/injection, schedule: Q04DX003 (ip), vehicle: Klucel (hydroxypropylcellulose) (HPC)) 95 % of control; (dose: 400.0 mg/kg/injection, schedule: Q04DX003 (ip), vehicle: Klucel (hydroxypropylcellulose) (HPC)) 104 % of control.

In the case of `CCCC(=O)OCC1OC(n2ccc(N)nc2=O)C(O)C1OC(=O)CCC` (configuration not stated), the T/C was 183 % of control (dose: 60.0 mg/kg/injection, schedule: Q01DX005 (ip), vehicle: Klucel (hydroxypropylcellulose) (HPC)); 152 % of control (dose: 90.0 mg/kg/injection, schedule: Q01DX005 (ip), vehicle: Klucel (hydroxypropylcellulose) (HPC)); 158 % of control (dose: 134.0 mg/kg/injection, schedule: Q01DX005 (ip), vehicle: Klucel (hydroxypropylcellulose) (HPC)); 162 % of control and 170 % of control (dose: 200.0 mg/kg/injection, schedule: Q01DX005 (ip), vehicle: Klucel (hydroxypropylcellulose) (HPC)).

As for `COc1ccccc1NCc1cccc([N+](=O)[O-])c1`, the T/C is 100 % of control under setting [7]; 100 % of control under setting [4]; 94 % of control under setting [8]; 94 % of control under setting [5]; 86 % of control under setting [6].

As to `C=CC(OC)OC`, the T/C reads like this: (dose: 25.0 mg/kg/injection, schedule: Q04DX003 (ip), vehicle: saline) 95 % of control; (dose: 50.0 mg/kg/injection, schedule: Q04DX003 (ip), vehicle: saline) 93 % of control.

As to `CCC#CC(O)(C(=O)OCC)C1CCCC1` (configuration not stated), the T/C (dose: 100.0 mg/kg/injection, schedule: Q01DX001 (ip), vehicle: saline) is 105 % of control; the T/C (dose: 200.0 mg/kg/injection, schedule: Q01DX001 (ip), vehicle: saline) was 105 % of control; the T/C (dose: 400.0 mg/kg/injection, schedule: Q01DX001 (ip), vehicle: saline) was 111 % of control.

For `COC(=O)c1cc(C)[n+]([O-])cc1C(=O)OC`, the T/C was 92 % of control under setting [4], 97 % of control under setting [5] and 100 % of control under setting [6].

As to `C[CH2][Pb]([CH2]C)([CH2]C)[O]C(=O)COc1ccccc1`, the T/C (dose: 0.75 mg/kg/injection, schedule: Q01DX009 (ip), vehicle: Klucel (hydroxypropylcellulose) (HPC)) is 98 % of control; the T/C (dose: 0.75 mg/kg/injection, schedule: Q04DX003 (ip), vehicle: saline with Tween-80) was 96 % of control; the T/C (dose: 1.5 mg/kg/injection, schedule: Q01DX009 (ip), vehicle: Klucel (hydroxypropylcellulose) (HPC)) was 95 % of control; the T/C (dose: 1.5 mg/kg/injection, schedule: Q04DX003 (ip), vehicle: saline with Tween-80) is 95 % of control; the T/C (dose: 3.0 mg/kg/injection, schedule: Q01DX009 (ip), vehicle: Klucel (hydroxypropylcellulose) (HPC)) was 106 % of control; the T/C (dose: 3.0 mg/kg/injection, schedule: Q04DX003 (ip), vehicle: saline with Tween-80) is 101 % of control. Moreover, the T/C (dose: 6.0 mg/kg/injection, schedule: Q01DX009 (ip), vehicle: Klucel (hydroxypropylcellulose) (HPC)) is 102 % of control; the T/C (dose: 6.0 mg/kg/injection, schedule: Q04DX003 (ip), vehicle: saline with Tween-80) was 91 % of control; the T/C (dose: 12.0 mg/kg/injection, schedule: Q04DX003 (ip), vehicle: saline with Tween-80) was 101 % of control; the T/C (dose: 12.5 mg/kg/injection, schedule: Q04DX002 (ip), vehicle: Klucel (hydroxypropylcellulose) (HPC)) was 103 % of control; the T/C (dose: 25.0 mg/kg/injection, schedule: Q04DX002 (ip), vehicle: Klucel (hydroxypropylcellulose) (HPC)) is 97 % of control.

Take `CCCCCCCC/C=C\CCCCCCCC(=O)OCCCCCCCCCCCCCCCC`: the T/C under setting [7] was 104 % of control; the T/C under setting [8] is 96 % of control; the T/C (dose: 400.0 mg/kg/injection, schedule: Q01DX009 (ip), vehicle: Klucel (hydroxypropylcellulose) (HPC)) is 93 % of control.

Consider `CCC[CH2][Sn]([Cl])([Cl])[CH2]CCC`, for which the T/C is, setting by setting: (dose: 2.5 mg/kg/injection, schedule: Q01DX009 (ip), vehicle: saline with Tween-80) 100 % of control; (dose: 5.0 mg/kg/injection, schedule: Q01DX009 (ip), vehicle: saline with Tween-80) 95 % of control; (dose: 5.0 mg/kg/injection, schedule: Q04DX003 (ip), vehicle: saline with Tween-80) 104 % of control; (dose: 10.0 mg/kg/injection, schedule: Q01DX009 (ip), vehicle: saline with Tween-80) 95 % of control; (dose: 10.0 mg/kg/injection, schedule: Q04DX003 (ip), vehicle: saline with Tween-80) 101 % of control; (dose: 20.0 mg/kg/injection, schedule: Q04DX003 (ip), vehicle: saline with Tween-80) 119 % of control.
